These results are taken from patent US8957022B2, “Multimeric tie 2 agonists and uses thereof in stimulating angiogenesis” (Sunnybrook Health Sciences Centre, priority 2006, dated 2015).

The test system of assay [1] is B6.Cg-m(+/+)Lepr(db)/J (db/db) mice. The experiment in a line: Excisional wound healing in diabetic mice, topical application. The format is in vivo, mouse. The note with it: bFGF 10 μg/ml. The protocol:
Pathogen free, nine week old B6.Cg-m(+/+)Lepr(db)/J (db/db) mice were purchased from Jackson Laboratories. Circular, full excisional, 6 mm diameter wounds were made, according to animal committee approval guidelines, equal distant apart on the dorsal side of the mice. Various factors were suspended in sterile Intrasite Topical Gel (Smith and Nephew) at noted concentrations. Treatments were as follows: Vehicle n=8, bFGF (10 μg/ml) n=8, clustered Vasculotide (20 nM) n=4, clustered Vasculotide (5 nM) n=4. Preparations were applied at day 0 (time of wounding), day 2, 4 and 6. Standardized images were taken on days 0, 2, 4, 6 and 7 using a Canon EOS digital Rebel camera. Image J (NIH) was used to manually outline wound perimeter from which total pixel counts (wound area) were determined. Mice were sacrificed on day 7 and full wound beds including margin were excised and fixed in 4% PFA. Wounds were cut in half at the widest point and each half was prepared for either paraffin or frozen sections. Wax sections were processed according to standard protocols for H&E and Masson's Trichrome stain. Images were captured using a Leica DMLS compound light microscope and Pixel Link camera at 5× and 20×. Student's t test was used to test the statistical significance.
For histological scoring, sections were fixed in 4% paraformaldehyde, embedded in paraffin and sectioned and stained with H & E and Masson's trichrome. Sections were evaluated by a pathologist for re-epithelialization, granulation tissue formation, and inflammation, with criteria used for scoring skin as follows:
• 0—none • 1—minimal (0-20% regrowth from wound margins) • 2—mild (25% to 50% regrowth) • 3—moderate (>50% regrowth, up to 100% but not >2 cells thick along length) • 4—complete regrowth (epithelium>1 cell thick along length, keratinized) Granulation Tissue (GT) and Neovascularization: • 0—none • 1—minimal (1-3 small, isolated islands of GT at margins of defect) • 2—mild (multifocal, patchy islands of GT underlying tissue defect, <10 new blood vessels) • 3—moderate (locally extensive bands of GT underlying length of defect) • 4—marked (dense bands of GT at margins and underlying length of defect with collagen fibrils and numerous blood vessels) Inflammation (within Defect): • 0—none • 1—minimal (a few scattered neutrophils at margins of defect) • 2—mild (multifocal aggregates of up to 5 neutrophils underlying defect) • 3—moderate (multifocal aggregates of up to 10 neutrophils and occasional macrophages, minimal to mild edema) • 4—marked (locally extensive, dense neutrophilic infiltrates with lesser numbers of macrophages, mild-moderate edema)

For assay [2], the system named is CD1 mice. Briefly: Matrigel plug angiogenesis assay. The format is in vivo, mouse. The protocol:
To further examine the in vivo angiogenic potential of Vasculotide, a Matrigel assay was performed. More specifically, growth factor reduced Matrigel (BD Biosciences) was impregnated with either clustered Vasculotide or one of several different control factors. These Matrigel samples were injected subcutaneously into the flank region of 3 month old CD1 mice. 14 days post implantation and immediately prior to sacrifice, FITC lectin (100 μg) was injected IV and allowed to circulate for 10 minutes, to facilitate vessel identification and quantification. Plugs were surgically resected and fixed in 4% paraformaldehyde (PFA) for 16 h. Images of vascular topology were taken using a Zeiss dissecting microscope at 4× magnification. Upon fixing, all plugs were whole mount stained with anti-Sma1-Cy3. Plugs were analyzed on a Zeiss Axiovert 100 M confocal microscope (Carl Zeiss) for three dimensional image reconstruction and photos were processed using LSM Image Browser and Adobe Photoshop 7.0. Morphometric quantification of vessel characteristics was performed by skeletonizing confocal image projections with Image Processing Tool Kit 5.0 (IPTK 5.0). Student's t test was used to test the statistical significance with a 95% confidence interval. All experiments were performed with three replicates each, with at least 5 random image stacks.
To more fully address and assign quantitative vessel parameters to the different treatment groups, the plugs were fixed and interrogated with laser confocal microscopy analysis combined with post processing image analysis (Image Processing Tool Kit 5.0, Reindeer Graphics, N.C.). Vessel parameters, including length, number and branch points (nodes) were quantified on at least six representative fields. Statistical analysis was performed by way of unpaired Student's t test. Bar graphs of the number of vessels, vessel length and number of nodes, for each treatment group, are shown in FIGS. 3A, 3B and 3C, respectively. It is noted that poor perfusion of FITC-lecithin into mice harboring 20 nM clustered Vasculotide plus VEGF plugs prevented statistical analysis, therefore bars are the mean of two separate fields. All other bars shown represent mean+/−SD.
Ang 1 has been reported to potentiate the recruitment of myogenic support cells (Suri, C. et al. (1996) Cell 87:1171-1180) and inhibit VEGF induced vascular permeability through mechanisms that are not well understood (Thurston, G. et al. (2000) Nat. Med. 6:460-463). To determine if Vasculotide, like Ang 1, was capable of initiating pericyte recruitment, whole mount immunofluorescence was performed against smooth muscle actin 1 (Sma1). […] Sma 1 staining was tightly associated with the exterior of the vessels and was enriched on larger vessels.

The subject of assay [3] is HUVEC. Briefly: Modified Boyden chamber migration assay. The note with it: as in Example 4. The format is cell-based, human.
Method: To test if Vasculotide, like Ang 1, was capable of promoting these processes, the effect of Vasculotide on EC migration was tested using a modified Boyden chamber assay. HUVEC were seeded at a density of 8.4×10^4 cells in 500 μl of F12 growth media plus 0.1% FBS in the upper chamber of an 8 μm pore size modified Boyden chamber (Falcon). 500 μl of F12 media plus 0.1% FBS plus various growth factors (Ang 1 (R& D Systems), unclustered or clustered Vasculotide, VEGF (R&D Systems) or clustered Vasculotide in combination with VEGF) or controls were placed in the bottom chamber. Cells were allowed to migrate for 4 hours in a 37° C., 5% CO2 incubator. Nonmigrating cells were scraped off, and filters were fixed in 100% methanol for 5 minutes, stained with Harris' Hematoxylin (BDH) for 10 minutes and washed twice with tap water for 3 minutes each. Filters were then mounted using Aquapolymount mounting medium. Cells that had migrated more than 50% of the way through the pore were scored as positive for migration.
Student's t test was used to test the statistical significance with a 95% confidence interval. Stimulations were performed in triplicate and migrating cells in 6 microscopic fields per replicate were counted.
The subject of assay [4] is MMP2. Briefly: Gelatin zymography of HUVEC conditioned media. The format is cell-based, human. As to conditions: as in Example 4. The protocol: In vivo, ECs can not migrate until they secrete enzymes necessary to break down components of the extra cellular matrix. Gelatin zymography was employed to determine if clustered Vasculotide promoted secretion of MMP2. To perform the zymography, HUVEC were cultured in F12 media plus 0.1% FBS and stimulated for 16 h with VEGF, unclustered Vasculotide or clustered Vasculotide at various concentrations. Conditioned media was centrifuged to remove cellular debris and prepared for gel electrophoresis using non-reducing conditions. Gels were washed twice for 30 minutes in 2.5% Triton X-100 to remove sodium dodecyl sulfate and were then incubated in substrate buffer (50 mmol/L Tris-HCl, pH 8.8, 5 mmol/L CaCl2) for 16 hours at 37° C. Gels were then stained with 0.5% Coomassie blue in 30% methanol/10% acetic acid for 2 hours at room temperature and destained in 50% methanol/10% acetic acid. The presence of metalloproteinases was indicated by unstained proteolytic zones in the gel.

The test system of assay [5] is HUVEC. The experiment in a line: Serum withdrawal-induced cell death, Cell Death ELISA. The format is cell-based, human. As to conditions: F12 plus 0.1% FBS, 16 hours; clustered Vasculotide at 500 pM (p=0.002) vs non-treated cells. The protocol:
Based on the fact that clustered Vasculotide strongly activates the anti apoptotic protein AKT (see Example 3), the ability of Vasculotide to protect ECs from serum withdrawal-induced death was examined. To do so, HUVEC were maintained in F12 media plus 0.1% FBS for 16 hours in the presence of various concentrations of unclustered or clustered Vasculotide, followed by analysis of cell apoptosis via cell death ELISA. Analysis of apoptosis was performed using Cell Death ELISA Plus (Roche) according to manufacturers' specifications. The results are shown in FIG. 2A, in which values were normalized to basal levels of cell death for HUVECs maintained in full 10% FBS, growth factor supplemented F12 media. The results shown represent the mean of three replicates plus or minus 1 SD. Student's T-test was used for statistical analysis with P value indicated.
A general note: ELISA stands for enzyme-linked immunosorbent assay.

Assay [6] concerns the target Tie 2 (Homo sapiens, UniProt Q02763). Briefly: Tie 2 activation (pY992 Tie 2 immunoblot) in HUVEC. The format is cell-based. On the set-up: downstream signalling pathways in human umbilical vein endothelial cells (HUVEC) (Cambrex, N.J.); host or cells: HUVEC, passage 3-9. The note with it: avidin alone and unclustered Vasculotide. The protocol:
Having established that Vasculotide was able to bind Tie 2 (see Example 2), the ability of Vasculotide, when clustered with avidin in a 4:1 ratio (Vasculotide:avidin), to activate the Tie 2 receptor was tested by examining several well established downstream signalling pathways in human umbilical vein endothelial cells (HUVEC) (Cambrex, N.J.). Such signalling pathways are described in, for example, Kim, I. et al. (2000) Circ. Res. 9:952-959; Fujikawa, K. et al. (1999) Exp. Cell. Res. 2:663-672; Babaei, S. et al. (2003) Am. J. Pathol. 6:1927-1936.
HUVEC were grown on 6-well or 10 cm plates (Nunc) coated with gelatin (Sigma). HUVEC were cultured in F12 growth medium containing 10% fetal bovine serum (FBS), 0.1 mg/ml heparin sulphate, 1× penicillin, 1× streptomycin, 1× glutamine, VEGF 10 ng/ml, EGF 10 ng/ml, bFGF 5 ng/ml. All HUVEC were used between passage 3-9.
(§1) HUVEC were stimulated with one of either Ang 1 (R&D Systems), Vasculotide, avidin or clustered Vasculotide (preclustered with a 4:1 molar ratio of peptide:avidin in PBS for 2 hours at 4° C.) at various doses. Stimulations with Vasculotide were performed in full serum containing growth media for 15 minutes unless otherwise indicated. Cell lysate preparations and immunoblot analysis were performed by standard methods. Antibodies used for immunoblotting (in this and/or subsequent Examples) were monoclonal anti Tie 2 (Pharminogen), polyclonal anti pY992 Tie 2, (Cell Signaling Technology), polyclonal anti MAPK (Cell Signaling Technology), monoclonal anti phospho MAPK (Cell Signaling Technology), polyclonal anti AKT (Cell Signaling Technology), polyclonal anti pS473 AKT (Cell Signaling Technology), monoclonal anti pS1177 eNOS (BD Biosciences), polyclonal anti pY397 FAK (Biosource), polyclonal anti FAK (Santa Cruz), polyclonal anti smooth muscle actin-Cy3 direct conjugate (Dako), polyclonal anti PECAM (Pharminogen) and polyclonal anti smooth muscle actin (Sigma).
To examine Tie 2 activation kinetics, HUVEC were stimulated with native Ang 1 or clustered Vasculotide for various times. Stimulation was performed in 10% FBS. […] Overall, activation of the receptor by either Ang 1 or clustered Vasculotide followed a very similar time course with phosphorylation returning to almost basal levels sometime after 2 hours.

The subject of assay [7] is focal adhesion kinase (FAK). Briefly: FAK activation in HUVEC (pY397 FAK immunoblot). The format is cell-based, human. As to conditions: time course. The protocol:
as §1
To examine Tie 2 activation kinetics, HUVEC were stimulated with native Ang 1 or clustered Vasculotide for various times. Stimulation was performed in 10% FBS. […]

Where no end group is shown, it is not given here. Side-chain parts run from the residue outwards. The star is where a group is joined. Biotin = O=C1N[C@H]2[C@H](CS[C@H]2CCCCC(=O)*)N1; PEO = not defined here

Tie 2, sequence (Q02763 23-1124): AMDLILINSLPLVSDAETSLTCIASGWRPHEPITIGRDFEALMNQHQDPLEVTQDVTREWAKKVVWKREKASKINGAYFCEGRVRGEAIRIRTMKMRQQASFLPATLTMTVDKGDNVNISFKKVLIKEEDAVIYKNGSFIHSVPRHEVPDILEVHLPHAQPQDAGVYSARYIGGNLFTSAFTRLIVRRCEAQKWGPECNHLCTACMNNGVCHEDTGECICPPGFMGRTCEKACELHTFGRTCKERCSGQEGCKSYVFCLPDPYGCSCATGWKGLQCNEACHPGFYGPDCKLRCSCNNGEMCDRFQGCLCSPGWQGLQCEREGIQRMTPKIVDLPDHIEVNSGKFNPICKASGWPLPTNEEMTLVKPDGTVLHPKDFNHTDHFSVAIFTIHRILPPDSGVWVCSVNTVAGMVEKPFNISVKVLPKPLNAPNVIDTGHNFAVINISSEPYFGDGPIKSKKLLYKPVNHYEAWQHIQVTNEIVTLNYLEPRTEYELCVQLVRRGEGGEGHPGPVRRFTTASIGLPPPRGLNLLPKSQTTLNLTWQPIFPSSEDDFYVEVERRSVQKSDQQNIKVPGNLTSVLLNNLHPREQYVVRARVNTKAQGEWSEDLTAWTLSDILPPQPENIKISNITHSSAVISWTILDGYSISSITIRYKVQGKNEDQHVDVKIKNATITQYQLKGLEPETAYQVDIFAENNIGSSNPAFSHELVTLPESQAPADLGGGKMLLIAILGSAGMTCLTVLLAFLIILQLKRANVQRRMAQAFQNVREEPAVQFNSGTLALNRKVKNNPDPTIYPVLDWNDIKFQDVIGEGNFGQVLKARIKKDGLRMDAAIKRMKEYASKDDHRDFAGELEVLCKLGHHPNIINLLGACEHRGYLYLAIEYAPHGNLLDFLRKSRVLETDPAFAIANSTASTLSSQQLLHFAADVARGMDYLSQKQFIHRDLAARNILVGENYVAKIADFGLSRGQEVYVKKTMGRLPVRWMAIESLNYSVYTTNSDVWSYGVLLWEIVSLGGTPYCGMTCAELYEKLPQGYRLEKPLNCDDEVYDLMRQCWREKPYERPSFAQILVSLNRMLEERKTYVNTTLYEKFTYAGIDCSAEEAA

Turning to “bFGF: growth factor used as comparator at 10 μg/ml in the wound gel [reference compound]”, the “Wound closure by day 7” value in assay [1] is “statistically indistinguishable from clustered Vasculotide at 20 nM or 5 nM”. Moreover, in assay [1] (p=0.0486), the “Histological differences between vehicle and bFGF” value is reported as “existed only at the level of inflammation”.

VEGF [reference compound]: the “Nature of vessels (arborization, tortuosity)” value in assay [2] (14 days post implantation) is recorded as “highly tortuous”. The “Vessel growth in plugs (confocal analysis)” value in assay [2] (14 days post implantation, FITC lectin) is on record as “robust induction of angiogenesis”. In assay [2] (14 days post implantation, subcutaneous), the “Angiogenic response in the membranous capsule surrounding the plugs” value was “distinct and robust angiogenic response”. Also, the “Smooth muscle actin 1 (Sma1) staining, pericyte recruitment” value in assay [2] (whole mount immunofluorescence) is given as “relative absence of Sma1 positive staining cells”.

For the molecule “tetrameric GA3-containing compound: GA3 peptide (SEQ ID NO: 4) conjugated to PEO-maleimide-biotin, clustered with avidin in a 4:1 ratio (C([maleimide-PEO-Biotin])WTIIQRREDGSVDFQRTWKEYK; reading uncertain; also: avidin tetramer, 4 peptides per avidin, printed as Cys-Trp-Thr-Ile-Ile-Gln-Arg-Arg-Glu-Asp-Gly-Ser-Val-Asp-Phe-Gln-Arg-Thr-Trp-Lys-Glu-Tyr-Lys)”, the “Endothelial cell migration (GA3 tetramer)” value in assay [3] is given as “effective in promoting endothelial cell migration”. Also, the “MMP2 release (GA3 tetramer)” value in assay [4] is given as “effective in promoting MMP2 release”.

For “avidin: tetramer agent with four binding sites for biotin, tested alone as control [reference compound]”, in assay [5], the “Apoptosis / survival after serum withdrawal” value is recorded as “no effect on survival”. Also, the “Tie 2 phosphorylation without preclustering” value in assay [6] is “only when preclustered with avidin was Vasculotide able to stimulate Tie 2 phosphorylation”.

B1: Ang 1: angiopoietin 1, protein growth factor ligand for Tie 2 (R&D Systems) (protein, UniProt Q15389 16-498, looked up)
Angiopoietin-1: HIGCSNQRRSPENSGRRYNRIQHGQCAYTFILPEHDGNCRESTTDQYNTNALQRDAPHVEPDFSSQKLQHLEHVMENYTQWLQKLENYIVENMKSEMAQIQQNAVQNHTATMLEIGTSLLSQTAEQTRKLTDVETQVLNQTSRLEIQLLENSLSTYKLEKQLLQQTNEILKIHEKNSLLEHKILEMEGKHKEELDTLKEEKENLQGLVTRQTYIIQELEKQLNRATTNNSVLQKQQLELMDTVHNLVNLCTKEGVLLKGGKREEEKPFRDCADVYQAGFNKSGIYTIYINNMPEPKKVFCNMDVNGGGWTVIQHREDGSLDFQRGWKEYKMGFGNPSGEYWLGNEFIFAITSQRQYMLRIELMDWEGNRAYSQYDRFHIGNEKQNYRLYLKGHTGTAGKQSSLILHGADFSTKDADNDNCMCKCALMLTGGWWFDACGPSNLNGMFYTAGQNHGKLNGIKWHYFKGPSYSLRSTTMMIRPLDF
For B1, the “Activation of FAK” value in assay [7] is reported as “time dependently activated FAK”.
